Results as given in patent US20240425492A1, “POLYMORPHS AS ERBB INHIBITORS” (Black Diamond Therapeutics, Inc., priority 2021, published 2024).
≈ marks a conversion by molar mass, not a printed value. Read-outs that look alike come from different tables or passages of the source.

What was measured:
[1] = Hygroscopicity by DVS at 25° C.; assay type: physicochemical; conditions: for Desorp. (%) / Sorp. (%): DVS 25° C.
Description: Dynamic Vapor Sorption (DVS): DVS analysis was performed using Intrinsic. Analysis was performed using parameters as set forth below.
The hygroscopicity for Form C and Form F was examined. See, e.g., Table E.

[2] = Variable relative humidity XRPD experiments for Form F; assay type: physicochemical
Source text: Protocol 9: Variable relative humidity experiment. Form F was investigated by variable humidity XRPD experiments. […] Form L reverted to Form F in >10% RH. […] See Example 8 for more details.
Form F was investigated by variable humidity XRPD experiments.

physchem = conditions: 37 °C, thermodynamic from solid
Description: (§1) 2.01 mg of the free base Form C (equal to 2 mg free base after correction for water content) was weighed into 2 mL vial. 2.09 mg of the free base Form F (equal to 2 mg free base after correction for water content) was weighed into a 2 mL vial. I mL of aqueous media was added, respectively. These suspensions were stirred at 37° C. at a rate of 400 rpm. These suspensions were taken out after 2 h and 24 h, and then centrifuged at 14,000 rpm for 5 minutes. The supernatants were analyzed by HPLC. The pH of the supernatants were tested.

[3] = Bulk stability under accelerated storage conditions (XRPD and HPLC); conditions: Solid state
Source text: Solids obtained after bulk stability study were characterized by XRPD and HPLC.

[4] = Solubility study in aqueous media at 37° C. (HPLC of supernatants, pH)
Description: as §1

[5] = 25° C./92.5% RH in an open vial, 2 weeks
[6] = 25° C./92.5% RH in an open vial, 4 weeks
[7] = 40° C./75% RH in an open vial, 2 weeks
[8] = 40° C./75% RH in an open vial, 4 week
[9] = 60° C., tight container, 2 weeks
[10] = 60° C., tight container, 4 weeks
[11] = pH 6.8 (50 mM) phosphate buffer, 37° C.

With `CN1C[C@H]2C[C@@]2(C#Cc2cc3ncnc(Nc4cccc(Cl)c4F)c3cc2NC(=O)/C=C/CN2CCOCC2)C1` [Form F] the “DVS water uptake from 40% RH to 70% RH” value ([1]; 25° C., dm/dt = 0.002%) was 1.1% water uptake from 40% RH to 70% RH, the “DVS water uptake from 40% RH to 95% RH” value ([1]; 25° C., dm/dt = 0.002%) was 10.2% water uptake from 40% RH to 95% RH and the “Desorp. (%)” value ([1]; Relative Humidity 0%, first Desorp.) was 0.0%. For the same molecule, the “Sorp. (%)” value ([1]; Relative Humidity 0%, second Sorp.) was 0.0%, the “Desorp. (%)” value ([1]; Relative Humidity 10%, first Desorp.) was 1.4% and the “Sorp. (%)” value ([1]; Relative Humidity 10%, second Sorp.) was 1.3%. For the same molecule, the “Desorp. (%)” value ([1]; Relative Humidity 20%, first Desorp.) was 1.9%, the “Sorp. (%)” value ([1]; Relative Humidity 20%, second Sorp.) was 1.7% and the “Desorp. (%)” value ([1]; Relative Humidity 30%, first Desorp.) was 3.6%. For the same molecule, the “Sorp. (%)” value ([1]; Relative Humidity 30%, second Sorp.) was 2.1%, the “Desorp. (%)” value ([1]; Relative Humidity 40%, first Desorp.) was 6.3% and the “Sorp. (%)” value ([1]; Relative Humidity 40%, first Sorp.) was 2.5%. The “Desorp. (%)” value ([1]; Relative Humidity 40%, second Desorp.) was 6.4%, the “Sorp. (%)” value ([1]; Relative Humidity 40%, second Sorp.) was 2.8% and the “Desorp. (%)” value ([1]; Relative Humidity 50%, first Desorp.) was 8.0%. The “Sorp. (%)” value ([1]; Relative Humidity 50%, first Sorp.) was 2.8%, the “Desorp. (%)” value ([1]; Relative Humidity 50%, second Desorp.) was 7.9% and the “Sorp. (%)” value ([1]; Relative Humidity 50%, second Sorp.) was 3.2%. For the same molecule, the “Desorp. (%)” value ([1]; Relative Humidity 60%, first Desorp.) was 9.4%, the “Sorp. (%)” value ([1]; Relative Humidity 60%, first Sorp.) was 3.2% and the “Desorp. (%)” value ([1]; Relative Humidity 60%, second Desorp.) was 9.3%. The “Sorp. (%)” value ([1]; Relative Humidity 60%, second Sorp.) was 3.7%, the “Desorp. (%)” value ([1]; Relative Humidity 70%, first Desorp.) was 10.2% and the “Sorp. (%)” value ([1]; Relative Humidity 70%, first Sorp.) was 3.6%. For the same molecule, the “Desorp. (%)” value ([1]; Relative Humidity 70%, second Desorp.) was 10.0%, the “Sorp. (%)” value ([1]; Relative Humidity 70%, second Sorp.) was 4.2% and the “Desorp. (%)” value ([1]; Relative Humidity 80%, first Desorp.) was 11.0%. For the same molecule, the “Sorp. (%)” value ([1]; Relative Humidity 80%, first Sorp.) was 10.4%, the “Desorp. (%)” value ([1]; Relative Humidity 80%, second Desorp.) was 10.8% and the “Sorp. (%)” value ([1]; Relative Humidity 80%, second Sorp.) was 10.4%. The “Desorp. (%)” value ([1]; Relative Humidity 90%, first Desorp.) was 11.8%, the “Sorp. (%)” value ([1]; Relative Humidity 90%, first Sorp.) was 11.6% and the “Desorp. (%)” value ([1]; Relative Humidity 90%, second Desorp.) was 11.6%. The “Sorp. (%)” value ([1]; Relative Humidity 90%, second Sorp.) was 11.4%, the “Desorp. (%)” value ([1]; Relative Humidity 95%, first Desorp.) was 12.9% and the “Sorp. (%)” value ([1]; Relative Humidity 95%, first Sorp.) was 12.7%. For the same molecule, the “Desorp. (%)” value ([1]; Relative Humidity 95%, second Desorp.) was 12.2%, the “Sorp. (%)” value ([1]; Relative Humidity 95%, second Sorp.) was 12.2% and the “XRPD after DVS test” value ([1]; DVS at 25° C.) was “No form change”. The “form conversion in variable humidity XRPD” value ([2]; 0% RH) was “converted to a new crystalline form, assigned as Form L”, the “XRPD (form observed)” value ([2]; 0% RH (12 h), step 8 of humidity sequence) was “Form L (Only stable in low humidity)” and the “XRPD (form observed)” value ([2]; 0% RH (24 h), step 9 of humidity sequence) was “Form L (Only stable in low humidity)”. The “XRPD (form observed)” value ([2]; 10% RH, step 7 of humidity sequence) was “Form F”, the “XRPD (form observed)” value ([2]; 10% RH, step 10 of humidity sequence) was “Form F” and the “XRPD (form observed)” value ([2]; 40% RH, step 1 of humidity sequence) was “Form F”. The “XRPD (form observed)” value ([2]; 40% RH, step 6 of humidity sequence) was “Form F”, the “XRPD (form observed)” value ([2]; 40% RH, step 11 of humidity sequence) was “Form F” and the “XRPD (form observed)” value ([2]; 70% RH, step 2 of humidity sequence) was “Form F”. For the same molecule, the “XRPD (form observed)” value ([2]; 70% RH, step 5 of humidity sequence) was “Form F”, the “XRPD (form observed)” value ([2]; 90% RH (3 h), step 3 of humidity sequence) was “Form F” and the “XRPD (form observed)” value ([2]; 90% RH (6 h), step 4 of humidity sequence) was “Form F”. For the same molecule, the “2 h Solubility” value (pH 5) was “Degradation”, the “24 h Solubility” value (pH 5) was “Degradation” and the “2 h Solubility” value (pH 6.5) was “Degradation”. For the same molecule, the “24 h Solubility” value (pH 6.5) was “Degradation”, the solubility (physchem; pH 1, simulated gastric fluid) was over 2000 µg/mL and the solubility at 2 h (physchem; pH 1, simulated gastric fluid) was over 2000 µg/mL. The solubility at 24 h (physchem; pH 1, simulated gastric fluid) was over 2000 µg/mL, the solubility (physchem; pH 2, simulated gastric fluid) was over 2000 µg/mL and the solubility at 2 h (physchem; pH 2, simulated gastric fluid) was over 2000 µg/mL. The solubility at 24 h (physchem; pH 2, simulated gastric fluid) was over 2000 µg/mL, the solubility (physchem; pH 4.5, aqueous buffer) was over 2000 µg/mL and the solubility at 2 h (physchem; pH 4.5, aqueous buffer) was over 2000 µg/mL. For the same molecule, the solubility at 24 h (physchem; pH 4.5, aqueous buffer) was over 2000 µg/mL, the solubility (physchem; pH 6.8, aqueous buffer) was about 20 µg/mL (≈ 35.6 µM) and the solubility at 2 h (physchem; pH 6.8, aqueous buffer) was 20.7 µg/mL (≈ 36.9 µM). For the same molecule, the solubility at 24 h (physchem; pH 6.8, aqueous buffer) was 19.8 µg/mL (≈ 35.3 µM), the solubility (physchem; water) was under 10 µg/mL and the solubility at 2 h (physchem; water) was 7 µg/mL (≈ 12.5 µM). For the same molecule, the solubility at 24 h (physchem; water) was 7.5 µg/mL (≈ 13.4 µM), the “Bulk (XRPD)” value [3, 5] was “No form change” and the “Purity, Bulk (HPLC)” value [3, 5] was 95.5%. The “Bulk (XRPD)” value [3, 6] was “No form change”, the “Purity, Bulk (HPLC)” value [3, 6] was 94.1% and the “Bulk (XRPD)” value [3, 7] was “No form change”. The “Purity, Bulk (HPLC)” value [3, 7] was 94.3%, the “Bulk (XRPD)” value [3, 8] was “No form change” and the “Purity, Bulk (HPLC)” value [3, 8] was 91.6%. For the same molecule, the “Bulk (XRPD)” value [3, 9] was “No form change”, the “Purity, Bulk (HPLC)” value [3, 9] was 90.1% and the “Bulk (XRPD)” value [3, 10] was “No form change”. For the same molecule, the “Purity, Bulk (HPLC)” value [3, 10] was 82.6%, the “24 h (pH) of supernatant” value ([4]; SGF, pH 2.0, 37° C.) was “pH 3.5” and the “XRPD of residual solid” value ([4]; Water, 37° C.) was “Form F”. For the same molecule, the “24 h (pH) of supernatant” value ([4]; Water, 37° C.) was “pH 7.0”, the “24 h (pH) of supernatant” value ([4]; pH 1.0 (0.1N HCl), 37° C.) was “pH 0.9” and the “24 h (pH) of supernatant” value ([4]; pH 4.5 (50 mM) acetate buffer, 37° C.) was “pH 4.6”. The “XRPD of residual solid” value [4, 11] was “Form F” and the “24 h (pH) of supernatant” value [4, 11] was “pH 6.7”.
